How the values were obtained:
Format in all cases: in vivo
Settings in all cases: evaluated after 13 days
Setaria faberi (SETFA) [1] = experiment: Pre-emergence Test, Setaria faberi (SETFA)
[2] = tested on: Echinochloa crus-galli (ECHCG); experiment: Post-emergence Test, Echinochloa crus-galli (ECHCG); set-up: key to percentage damage caused to the plant, ECHCG (five-point scale): 5=81-100%, 4=61-80%, 3=41-60%, 2=21-40%, 1=0-20% damage
Procedure, shortened: (§1)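 Sown pots in a glasshouse (24/16 °C day/night, 14 h light, 65% humidity) were sprayed with compound in acetone/water (50:50) with 0.5% Tween 20, at 1000 g/ha unless otherwise stated. Damage was assessed 13 days after spraying and scored 1–5 (5=81-100%, 1=0-20%).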

[3] = tested on: Ipomoea hederacea (IPOHE); experiment: Post-emergence Test, Ipomoea hederacea (IPOHE); set-up: key to percentage damage caused to the plant, IPOHE (five-point scale): 5=81-100%, 4=61-80%, 3=41-60%, 2=21-40%, 1=0-20% damage
Procedure, shortened: as §1

Setaria faberi (SETFA) [4] = experiment: Post-emergence Test, Setaria faberi (SETFA); set-up: key to percentage damage caused to the plant, SETFA (five-point scale): 5=81-100%, 4=61-80%, 3=41-60%, 2=21-40%, 1=0-20% damage
Procedure, shortened: as §1

[5] = tested on: Ipomoea hederacea (IPOHE); experiment: Pre-emergence Test, Ipomoea hederacea (IPOHE)
Zea mays (ZEAMX) [6] = experiment: Post-emergence Test, Zea mays (ZEAMX); set-up: key to percentage damage caused to the plant, ZEAMX (five-point scale): 5=81-100%, 4=61-80%, 3=41-60%, 2=21-40%, 1=0-20% damage
Procedure, shortened: as §1

[7] = tested on: Amaranthus palmeri (AMAPA); experiment: Post-emergence Test, Amaranthus palmeri (AMAPA); set-up: key: 5=81-100%, 4=61-80%, 3=41-60%, 2=21-40%, 1=0-20% damage
Procedure, shortened: as §1

[8] = tested on: Echinochloa crus-galli (ECHCG); experiment: Pre-emergence Test, Echinochloa crus-galli (ECHCG)
[9] = tested on: Amaranthus retoflexus (AMARE); experiment: Pre-emergence Test, Amaranthus retoflexus (AMARE)
[10] = tested on: Amaranthus palmeri (AMAPA); experiment: Pre-emergence Test, Amaranthus palmeri (AMAPA)
Zea mays (ZEAMX) [11] = experiment: Pre-emergence Test, Zea mays (ZEAMX)
[12] = tested on: Amaranthus retoflexus (AMARE); experiment: Post-emergence Test, Amaranthus retoflexus (AMARE); set-up: key to percentage damage caused to the plant, AMARE (five-point scale): 5=81-100%, 4=61-80%, 3=41-60%, 2=21-40%, 1=0-20% damage
Procedure, shortened: as §1

Compound	Pre-emergence Test SETFA, percentage damage caused to the plant (five-point scale) (Setaria faberi (SETFA) [1]; 1000 g/ha)	percentage damage caused to the plant, ECHCG (five-point scale) ([2]; 250 g/Ha)	percentage damage caused to the plant, ECHCG (five-point scale) ([2]; 1000 g/ha)	percentage damage caused to the plant, IPOHE (five-point scale) ([3]; 250 g/Ha)	percentage damage caused to the plant, IPOHE (five-point scale) ([3]; 1000 g/ha)	percentage damage caused to the plant, SETFA (five-point scale) (Setaria faberi (SETFA) [4]; 250 g/Ha)	percentage damage caused to the plant, SETFA (five-point scale) (Setaria faberi (SETFA) [4]; 1000 g/ha)	Pre-emergence Test IPOHE, percentage damage caused to the plant (five-point scale) ([5]; 1000 g/ha)	percentage damage caused to the plant, ZEAMX (five-point scale) (Zea mays (ZEAMX) [6]; 250 g/Ha)	percentage damage caused to the plant, ZEAMX (five-point scale) (Zea mays (ZEAMX) [6]; 1000 g/ha)	percentage damage caused to the plant, AMAPA (five-point scale) ([7]; 250 g/Ha)	percentage damage caused to the plant, AMAPA (five-point scale) ([7]; 1000 g/ha)	Pre-emergence Test ECHCG, percentage damage caused to the plant (five-point scale) ([8]; 1000 g/ha)	Pre-emergence Test AMARE, percentage damage caused to the plant (five-point scale) ([9]; 1000 g/ha)	Pre-emergence Test AMAPA, percentage damage caused to the plant (five-point scale) ([10]; 1000 g/ha)	Pre-emergence Test ZEAMX, percentage damage caused to the plant (five-point scale) (Zea mays (ZEAMX) [11]; 1000 g/ha)	percentage damage caused to the plant, AMARE (five-point scale) ([12]; 250 g/Ha)	percentage damage caused to the plant, AMARE (five-point scale) ([12]; 1000 g/ha)	other results
CCn1c(Cn2cc3c(n2)CCCC3)cc(=O)c(C(=O)O)c1-c1ccc(Cl)c(Cl)c1 [Compound 101, 2-(3,4-dichlorophenyl)-1-ethyl-4-oxo-6-(4,5,6,7-tetrahydroindazol-2-ylmethyl)pyridine-3-carboxylic acid]	1 (1=0-20%)	1 (1=0-20%)	0	0	3 (3=41-60%)	0	0	2 (2=21-40%)	0	0	0	0	0	1 (1=0-20%)	2 (2=21-40%)	1 (1=0-20%)	0	0	–
CCn1c(Cn2cncn2)cc(=O)c(C(=O)O)c1-c1ccc(Cl)c(Cl)c1 [Compound 49, 2-(3,4-dichlorophenyl)-1-ethyl-4-oxo-6-(1,2,4-triazol-1-ylmethyl)pyridine-3-carboxylic acid]	0	0	2 (2=21-40%)	1 (1=0-20%)	0	1 (1=0-20%)	2 (2=21-40%)	0	0	0	0	1 (1=0-20%)	1 (1=0-20%)	2 (2=21-40%)	1 (1=0-20%)	0	0	0	–
CCOC(=O)c1c(-c2ccc(Cl)c(Cl)c2)n(CC)c(Cn2ccc(Cl)n2)cc1=O [Compound 3, ethyl 6-[(3-chloropyrazol-1-yl)methyl]-2-(3,4-dichlorophenyl)-1-ethyl-4-oxo-pyridine-3-carboxylate]	5 (5=81-100%)	1 (1=0-20%)	3 (3=41-60%)	4 (4=61-80%)	2 (2=21-40%)	2 (2=21-40%)	3 (3=41-60%)	0	0	2 (2=21-40%)	1 (1=0-20%)	2 (2=21-40%)	4 (4=61-80%)	1 (1=0-20%)	0	0	1 (1=0-20%)	1 (1=0-20%)	Pre-emergence Test SETFA, percentage damage caused to the plant (five-point scale) (Setaria faberi (SETFA) [1]; 250 g/Ha (*)): 1 (1=0-20%); Pre-emergence Test IPOHE, percentage damage caused to the plant (five-point scale) ([5]; 250 g/Ha (*)): 0; Pre-emergence Test ECHCG, percentage damage caused to the plant (five-point scale) ([8]; 250 g/Ha (*)): 1 (1=0-20%); Pre-emergence Test AMARE, percentage damage caused to the plant (five-point scale) ([9]; 250 g/Ha (*)): 0; Pre-emergence Test AMAPA, percentage damage caused to the plant (five-point scale) ([10]; 250 g/Ha (*)): 0; Pre-emergence Test ZEAMX, percentage damage caused to the plant (five-point scale) (Zea mays (ZEAMX) [11]; 250 g/Ha (*)): 0
CCn1c(Cn2cc(C(=O)OC)cn2)cc(=O)c(C(=O)O)c1-c1ccc(Cl)c(Cl)c1 [Compound 40, 2-(3,4-dichlorophenyl)-1-ethyl-6-[(4-methoxycarbonylpyrazol-1-yl)methyl]-4-oxo-pyridine-3-carboxylic acid]	1 (1=0-20%)	1 (1=0-20%)	0	0	2 (2=21-40%)	0	1 (1=0-20%)	2 (2=21-40%)	0	2 (2=21-40%)	0	1 (1=0-20%)	0	1 (1=0-20%)	3 (3=41-60%)	0	1 (1=0-20%)	0	–
CCOc1cc(C)nn1Cc1cc(=O)c(C(=O)O)c(-c2ccc(Cl)c(Cl)c2)n1CC [Compound 149, 2-(3,4-dichlorophenyl)-6-[(5-ethoxy-3-methyl-pyrazol-1-yl)methyl]-1-ethyl-4-oxo-pyridine-3-carboxylic acid]	4 (4=61-80%)	1 (1=0-20%)	4 (4=61-80%)	1 (1=0-20%)	2 (2=21-40%)	1 (1=0-20%)	3 (3=41-60%)	0	0	2 (2=21-40%)	0	1 (1=0-20%)	1 (1=0-20%)	1 (1=0-20%)	3 (3=41-60%)	0	0	2 (2=21-40%)	–
CCOC(=O)c1c(-c2ccc(Cl)c(Cl)c2)n(CC)c(Cn2ccc(Cl)n2)c(Br)c1=O [Compound 27, ethyl 5-bromo-6-[(3-chloropyrazo1-1-yl)methyl]-2-(3,4-dichlorophenyl)-1-ethyl-4-oxo-pyridine-3-carboxylate]	0	–	0	–	0	–	0	0	–	0	–	0	0	1 (1=0-20%)	0	0	–	0	–

From patent publication US20250098679A1, “HERBICIDAL PYRIDONE DERIVATIVES” (SYNGENTA CROP PROTECTION AG, priority 2021, published 2025)
